Assay results taken from patent publication US6492397B1, “N-arylheteroarylalkyl imidazol-2-one compounds for treatment of arteriosclerosis” (Pharmacia Corporation, priority 1991, dated 2002).
Like-named read-outs stand apart in the source and are kept apart here.

Key:
[1] = target: smooth muscle angiotensin II receptor; assay: Assay A: Angiotensin II Binding Activity (125I-angiotensin II displacement, rat uterine membrane preparation); details: 50% displacement of specifically bound 125I-AII, rat uterine membranes, 25° C., 60 min
Procedure: Assay A: Angiotensin II Binding Activity
Compounds of the invention were tested for ability to bind to the smooth muscle angiotensin II receptor using a rat uterine membrane preparation. […] Other chemicals were obtained from Sigma Chemical Co. This assay was carried out according to the method of Douglas et al [Endocrinology, 106, 120-124 (1980)]. Rat uterine membranes were prepared from fresh tissue. All procedures were carried out at 4° C. Uteri were stripped of fat and homogenized in phosphate-buffered saline at pH 7.4 containing 5 mM EDTA. The homogenate was centrifuged at 1500×g for 20 min., and the supernatant was recentrifuged at 100,000×g for 60 min. The pellet was resuspended in buffer consisting of 2 mM EDTA and 50 mM Tris-HCl (pH 7.5) to a final protein concentration of 4 mg/ml. Assay tubes were charged with 0.25 ml of a solution containing 5 mM MgCl2, 2 mM EDTA, 0.5% bovine serum albumin, 50 mM Tris-HCl, pH 7.5 and […] (approximately 10^5 cpm) in the absence or in the presence of unlabelled ligand. The reaction was initiated by the addition of membrane protein and the mixture was incubated at 25° C. for 60 min. The incubation was terminated with ice-cold 50 mM Tris-HCl (pH 7.5) and the mixture was filtered to separate membrane-bound labelled peptide from the free ligand. The incubation tube and filter were washed with ice-cold buffer. Filters were assayed for radioactivity in a Micromedic gamma counter. Nonspecific binding was defined as binding in the presence of 10 μM of unlabelled AII. Specific binding was calculated as total binding minus nonspecific binding. […] Binding data were analyzed by a nonlinear least-squares curve fitting program.

[2] = tested on: rabbit aortic rings; assay: Assay B: In Vitro Vascular Smooth Muscle Response for AII (antagonist activity in rabbit aortic rings); format: cell-based; details: Oryctolagus cuniculus, test antagonist at 10^-5 M, AII contraction, read-out: Assay B pA2 (converted)
Procedure: Assay B: In Vitro Vascular Smooth Muscle-Response for AII
The compounds of the invention were tested for antagonist activity in rabbit aortic rings. Male New Zealand white rabbits (2-2.5 kg) were sacrificed using an overdose of pentobarbital and exsanguinated via the carotid arteries. The thoracic aorta was removed, cleaned of adherent fat and connective tissue and then cut into 3-mm ring segments. The endothelium was removed from the rings by gently sliding a rolled-up piece of filter paper into the vessel lumen. The rings were then mounted in a water-jacketed tissue bath, maintained at 37° C., between moveable and fixed ends of a stainless steel wire with the moveable end attached to an FT03 Grass transducer coupled to a Model 7D Grass Polygraph for recording isometric force responses. The bath was filled with 20 ml of oxygenated (95% oxygen/5% carbon dioxide) Krebs solution of the following composition (mM): 130 NaCl, 15 NaHCO3, […], 1.2 NaH2PO4, 1.2 MgSO4, 2.5 CaCl2, and 11.4 glucose. The preparations were equilibrated for one hour before approximately one gram of passive tension was placed on the rings. Angiotensin II concentration-response curves were then recorded (3×10^−10 to 1×10^−5 M). Each concentration of AII was allowed to elicit its maximal contraction, and then AII was washed out repeatedly for 30 minutes before rechallenging with a higher concentration of AII. Aorta rings were exposed to the test antagonist at 10^−5 M for 5 minutes before challenging with AII. Adjacent segments of the same aorta ring were used for all concentration-response curves in the presence or absence of the test antagonist. The effectiveness of the test compound was expressed in terms of pA2 values and were calculated according to H. O. Schild [Br. J. Pharmacol. Chemother., 2,189-206 (1947)]. The PA2 value is the concentration of the antagonist which increases the EC50 value for AII by a factor of two. Each test antagonist was evaluated in aorta rings from two rabbits.

[3] = tested on: pressor response to AII; assay: Assay C: In Vivo Intragastric Pressor Assay Response for AII Antagonists; set-up: species or system rat; details: for Assay C Duration: Dose: 3 mg/kg (i.g.), Sprague-Dawley rats, AII challenges up to 180 minutes after gavage; for inhibition in vivo at 3 mg/kg: Rattus norvegicus, po
Procedure: Assay C: In Vivo Intragastric Pressor Assay Response for AII Antagonists
Male Sprague-Dawley rats weighing 225-300 grams were anesthetized with methohexital (30 mg/kg, i.p.) and catheters were implanted into the femoral artery and vein. The catheters were tunneled subcutaneously to exit dorsally, posterior to the head and between the scapulae. The catheters were filled with heparin (1000 units/ml of saline). The rats were returned to their cage and allowed regular rat chow and water ad libitum. After full recovery from surgery (3-4 days), rats were placed in Lucite holders and the arterial line was connected to a pressure transducer. Arterial pressure was recorded on a Gould polygraph (mmHg). Angiotensin II was administered as a 30 ng/kg bolus via the venous catheter delivered in a 50 μl volume with a 0.2 ml saline flush. The pressor response in mm Hg was measured by the difference from pre-injection arterial pressure to the maximum pressure achieved. The AII injection was repeated every 10 minutes until three consecutive injections yielded responses within 4 mmHg of each other. These three responses were then averaged and represented the control response to AII. The test compound was suspended in 0.5% methylcellulose in water and was administered by gavage. The volume administered was 2 ml/kg body weight. The standard dose was 3 mg/kg. Angiotensin II bolus injections were given at 30, 45, 60, 75, 120, 150, and 180 minutes after gavage. The pressor response to AII was measured at each time point. The rats were then returned to their cage for future testing. A minimum of 3 days was allowed between tests. Percent inhibition was calculated for each time point following gavage by the following formula: [(Control Response−Response at time point)/Control Response]×100.

[4] = first value of the pair (aorta rings from two rabbits)
[5] = second value of the pair (aorta rings from two rabbits)

Structure (SMILES) | IC50 [1] [µM] | Kb [2, 4] [µM] | Kb [2, 5] [µM] | melting point | Assay C Duration [3] [min] | inhibition in vivo at 3 mg/kg [3] [%]
CCCCc1cn(CC(C)C)c(=O)n1Cc1ccc(-c2ccccc2-c2nnn[nH]2)nc1 [Example 13, 1-isobutyl-4-butyl-1,3-dihydro-3-[[6-[2-(1H-tetrazol-5-yl)phenyl]-3-pyridinyl]methyl]-2H-imidazol-2-one] | 0.014 | 0.00933 | 0.00251 | 160 to 161.5 °C | – | –
CCCCCc1cn(CCCC)c(=O)n1Cc1ccc(-c2ccccc2-c2nnn[nH]2)nc1 [Example 6, 1-butyl-4-yl-1,3-dihydro-3-[[6-[2-(1H-tetrazol-5-yl)phenyl]-3-pyridinyl]methyl]-2H-imidazol-2-one] | 0.01 | 0.0135 | 0.0129 | 176 to 177 °C | 180 | 10
CCCCc1cn(CCC2CC2)c(=O)n1Cc1ccc(-c2ccccc2-c2nnn[nH]2)nc1 [Example 22, 1-(2-cyclopropylethyl)-4-butyl 1,3-dihydro3-[[6-[2-(1H-tetrazol-5-yl)phenyl]-3-pyridinyl]methyl]-2H-imidazol-2-one] | 0.0054 | 0.00178 | 0.00129 | 182 to 183 °C | >180 | 30
CCCCc1cn(CCCC)c(=O)n1Cc1ccc(-c2cnccc2-c2nnn[nH]2)cc1 [Example 41, 1,4-dibutyl-1,3-dihydro-3-[[4-[4-(1H-tetrazol-5-yl)-3-pyridinyl]phenyl]methyl]-2H-imidazol-2-one] | 0.16 | – | – | 128 to 130 °C | – | –
CCCCn1cc(C2CCCC2)n(Cc2ccc(-c3ccccc3-c3nnn[nH]3)nc2)c1=O [Example 8, 1-butyl-4-cyclopentyl-1,3-dihydro-3-[[6-[2-(1H-tetrazol-5-yl)phenyl]-3-pyridinyl]methyl]-2H-imidazol-2-one] | 0.14 | – | – | 195 to 196 °C (dec.) | – | –
CCCCc1cn(-c2c(Cl)cccc2Cl)c(=O)n1Cc1ccc(-c2ccccc2-c2nnn[nH]2)nc1 [Example 37, 1-(2,6-dichlorophenyl)-4-butyl-1,3-dihydro-3-[[6-[2-(1H-tetrazol-5-yl)phenyl]-3-pyridinyl]methyl]-2H-imidazol-2-one] | 0.0048 | – | – | 212 to 212.5 °C | >180 | 25
CCCCc1cn(C)c(=O)n1Cc1ccc(-c2ccccc2-c2nnn[nH]2)nc1 [Example 10, 1-methyl-4-butyl-1,3-dihydro-3-[[6-[2-(1H-tetrazol-5-yl)phenyl]-3-pyridinyl]methyl]-2H-imidazol-2-one] | 0.047 | 0.0229 | 0.0447 | 184 to 185 °C (dec.) | – | –
CCCCc1cn(CCCC)c(=O)n1Cc1ccc(-c2cccnc2-c2nnn[nH]2)cc1 [Example 43, 1,4-dibutyl-1,3-dihydro-3-[[4-[2-(1H-tetrazol-5-yl)-3-pyridinyl]phenyl]methyl]-2H-imidazol-2-one] | 0.089 | 0.0282 | 0.0214 | 178 to 179.5 °C | – | –
CCCCc1cn(CCC)c(=O)n1Cc1ccc(-c2ccccc2-c2nnn[nH]2)nc1 [Example 12, 1-propyl-4-butyl-1,3-dihydro-3-[[6-[2-(1H-tetrazol-5-yl)phenyl]-3-pyridinyl]methyl]-2H-imidazol-2-one] | 0.031 | 0.0209 | 0.0055 | 164 to 165 °C | – | –
CCCCc1cn(CCCC)c(=O)n1Cc1ccc(-c2ncccc2-c2nnn[nH]2)cc1 [Example 40, 1,4-dibutyl-1,3-dihydro-3-[[4-[3-(1H-tetrazol-5-yl)-2-pyridinyl]phenyl]methyl]-2H-imidazol-2-one] | 0.091 | – | – | 178 to 179.5 °C | – | –
CCCCc1cn(CCCC)c(=O)n1Cc1ccc(-c2ccncc2-c2nnn[nH]2)cc1 [Example 42, 1,4-dibutyl-1,3-dihydro-3-[[4-[3-(1H-tetrazol-5-yl)-4-pyridinyl]phenyl]methyl]-2H-imidazol-2-one] | 0.093 | – | – | 176 to 178 °C (dec.) | – | –
CCCCc1cn(CC)c(=O)n1Cc1ccc(-c2ccccc2-c2nnn[nH]2)nc1 [Example 11, 1-ethyl-4-butyl-1,3-dihydro-3-[[6-[2-(1H-tetrazol-5-yl)phenyl]-3-pyridinyl]methyl]-2H-imidazol-2-one] | 0.034 | 0.00363 | 0.00933 | 205 °C (dec.) | – | –
CCCCn1cc(CCC2CC2)n(Cc2ccc(-c3ccccc3-c3nnn[nH]3)nc2)c1=O [Example 9, 1-butyl-4-(2-cyclopropylethyl)-1,3-dihydro-3-[[6-[2-(1H-tetrazol-5-yl)phenyl]-3-pyridinyl]methyl]-2H-imidazol-2-one] | 0.011 | 0.000537 | 0.00135 | – | 180 | 10
CCCCc1cn(C(C)C)c(=O)n1Cc1ccc(-c2ccccc2-c2nnn[nH]2)nc1 [Example 16, 1-isopropyl-4-butyl-1,3-dihydro-3-[[6-[2-(1H-tetrazol-5-yl)phenyl]-3-pyridinyl]methyl]-2H-imidazol-2-one] | 0.02 | 0.0038 | 0.0017 | – | >180 | 45
CCCc1cn(CCC)c(=O)n1Cc1ccc(-c2ccccc2-c2nnn[nH]2)nc1 [Example 2, 1,4-dipropyl-1,3-dihydro-3-[[6-[2-(1H-tetrazol-5-yl)phenyl]-3-pyridinyl]methyl]-2H-imidazol-2-one] | 0.038 | 0.00741 | 0.0398 | – | 180 | 25
CCCCc1cn(-c2c(F)cccc2F)c(=O)n1Cc1ccc(-c2ccccc2-c2nnn[nH]2)nc1 [Example 36, 1-(2,6-difluorophenyl)-4-butyl-1,3-dihydro-3-[[6-[2-(1H-tetrazol-5-yl)phenyl]-3-pyridinyl]methyl]-2H-imidazol-2-one] | 0.007 | – | – | 164.5 to 165.5 °C (dec.) | 120 | 75
